# PMC2897236 (Anesthesia and analgesia, 2009)
# “Also recorded” adds a separate entry of the source. Read-outs that look alike come from different tables or passages of the source.
# Key:
# [1] = test system: GABAA receptors; details: modulation of GABAA receptors; cited from earlier work
# [2] = read-out: Anesthetic EC50; anesthetizing concentration in animals; cited from earlier work
# [3] = molecular target: T1, GLIC (Gloeobacter violaceus, UniProt Q7NDN8); details: for Hill Coefficient: Hill (one-site) fit of inhibition of GLIC currents, mean ± se; for modulation of GLIC: at anesthetizing concentrations
# T1 sequence (Q7NDN8 44-359): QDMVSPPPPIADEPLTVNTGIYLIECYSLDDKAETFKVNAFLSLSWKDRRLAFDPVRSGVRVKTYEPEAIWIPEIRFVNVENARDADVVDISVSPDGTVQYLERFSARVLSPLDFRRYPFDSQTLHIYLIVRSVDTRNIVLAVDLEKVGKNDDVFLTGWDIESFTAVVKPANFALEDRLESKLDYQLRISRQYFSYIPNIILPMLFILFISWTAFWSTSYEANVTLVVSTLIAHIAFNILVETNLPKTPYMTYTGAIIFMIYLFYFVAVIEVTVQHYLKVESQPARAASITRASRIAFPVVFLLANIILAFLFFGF
# [4] = test system: GABAA receptors containing a δ subunit; details: cited from earlier work
# [5] = test system: homomeric α7 receptors; details: 25–50 mM ethanol, response is variable; cited from earlier work
# [6] = test system: α4β2 neuronal nicotinic acetylcholine receptors; details: cited from earlier work
# [7] = test system: 5HT3 receptors; details: cited from earlier work
# [8] = test system: α3 β4 neuronal nicotinic acetylcholine receptors; details: cited from earlier work
# [9] = test system: α2β2 neuronal nicotinic acetylcholine receptors; details: 75mM ethanol; cited from earlier work
# [10] = test system: α3β2 neuronal nicotinic acetylcholine receptors; details: cited from earlier work
# [11] = test system: α2 β4 neuronal nicotinic acetylcholine receptors; details: cited from earlier work
# [12] = test system: α4β4 neuronal nicotinic acetylcholine receptors; details: 75mM ethanol; cited from earlier work
# [13] = test system: glycine receptors; details: cited from earlier work
# [14] = test system: 5HT3A receptors; details: 1 MAC of halothane; cited from earlier work
# [15] = test system: α4 β2 nACh receptors; details: inhibition; cited from earlier work
# [16] = cited from earlier work
# [17] = test system: α4β4 nACh receptors; details: nitrous oxide at 0.6 atm; cited from earlier work
# [18] = test system: α4β2 nACh receptors; details: nitrous oxide at 0.6 atm; cited from earlier work
# [19] = test system: GABA receptors; details: nitrous oxide at 0.6 atm; cited from earlier work
# [20] = molecular target: glycine α1 receptors; details: enhancement of glycine currents; cited from earlier work
# [21] = molecular target: glycine α1 β receptors; details: enhancement of glycine currents; cited from earlier work
# [22] = IC50_1, two-site model, apparent affinity for site 1
# [23] = IC50_2, two-site model, apparent affinity for site 2
structure (smiles),measurement,setting,value
"CCOC(=O)c1cncn1[C@H](C)c1ccccc1 (single isomer, unassigned) [R isomer]",Hill Coefficient,[1],1.9
"CCOC(=O)c1cncn1[C@@H](C)c1ccccc1 (single isomer, unassigned) [S isomer]",Hill Coefficient,[1],2.9
FC(F)OC(F)C(F)(F)F (stereo not drawn) [Desflurane],EC50,[2],560 µM
same,concentration at which inhibition of GLIC was produced,[3],0.01 % of MAC
same,effect on currents through GLIC (current tracing),[3]; 0.5 mM desflurane,inhibit currents through GLIC
same,Hill Coefficient,[3],0.25 ± 0.05
same,Hill Coefficient,[3]; listed as desflurane,0.25
same,IC50,[3]; [22],0.01 µM
same,IC50,[3]; [23],300 µM
CCO [Ethanol],lowest potentiating concentration,[4],3 mM
same,effect on receptors,[5],inhibits
same,effect on GLIC currents,[3]; 200 mM ethanol compared to controls (p > 0.05),no effect
same,effect on GLIC currents,"[3]; 200 mM ethanol compared to controls (p > 0.05), listed as ethanol",did not modulate channel currents
same,modulation of GLIC,[3],did not modulate GLIC
same,effect on currents,[6]; 75mM ethanol,potentiates currents
same,maximal increase in currents,[7]; ethanol 50 to 200 mM,≤ 50%
same,sensitivity to ethanol,[8],not sensitive to ethanol
same,effect on currents,[9],potentiates currents
same,sensitivity to ethanol,[10],not sensitive to ethanol
same,effect on currents,[11]; 75mM ethanol,potentiates currents
same,effect on currents,[12],potentiates currents
CCOC(=O)c1cncn1[C@H](C)c1ccccc1 [Etomidate],potentiation of currents through glycine receptors,[13]; 300μM etomidate,29%
same,effect on GLIC currents relative to anesthetic concentrations,[3],inhibitory only at concentrations above those used to achieve anesthesia
same,effect on currents through GLIC (current tracing),[3]; 50 μM etomidate,inhibit currents through GLIC
same,Hill Coefficient,[3],not different from 1
FC(F)(F)C(Cl)Br (stereo not drawn) [Halothane],potentiation of 5HT3A receptors,[14],approximately 200%
same,EC50,[2],230 µM
same,concentration at which inhibition of GLIC was produced,[3],1 % of MAC
same,effect on currents through GLIC (current tracing),[3]; 0.25 mM halothane,inhibit currents through GLIC
same,Hill Coefficient,[3],0.27 ± 0.04
same,Hill Coefficient,[3]; listed as halothane,0.27
same,IC50,[3]; [22],0.3 µM
same,IC50,[3]; [23],1100 µM
FC(F)OC(Cl)C(F)(F)F (stereo not drawn) [Isoflurane],EC50,[2],280 µM
same,Hill number,[15],1.3
same,IC50,[15],85 µM
same,concentration at which inhibition of GLIC was produced,[3],1 % of MAC
same,effect on currents through GLIC (current tracing),[3]; 0.3 mM isoflurane,inhibit currents through GLIC
same,Hill Coefficient,[3],0.32 ± 0.07
same,Hill Coefficient,[3]; listed as isoflurane,0.32
same,IC50,[6]; α4β2 isoform,82 µM
same,potentiation of 5HT3 receptor function,[7]; anesthetic concentration raised to 10 MAC,> 100%
same,enhancement of 5HT3 receptor function,[7]; at MAC,less than 50%
same,IC50,[8]; α3 β4 isoform,56 µM
same,IC50,[11]; α2 β4 isoform,25 µM
[N-]=[N+]=O [Nitrous Oxide],Anesthetic EC50,[16]; MAC in humans,1.04 atm ([7])
same,inhibition,[17],7%
same,potentiation of glycine receptor function,[13]; nitrous oxide at 0.6 atm,approximately 30%
same,modulation of GLIC,[3],did not modulate GLIC
same,inhibition,[7]; nitrous oxide at 0.6 atm,approximately 15%
same,inhibition,[18],39%
same,potentiation of GABA receptor function,[19],~20%
CC(C)c1cccc(C(C)C)c1O [Propofol],EC50,[20],16 µM
same,EC50,[2],1.9 µM
same,Hill number,[15],2.9
same,IC50,[15],19 µM
same,EC50,[21],27 µM
same,lowest concentration inhibiting currents,[3],2 % of its anesthetic EC50
same,effect on currents through GLIC (current tracing),[3]; 1 μM propofol,inhibit currents through GLIC
same,Hill Coefficient,[3],0.42 ± 0.08
same,Hill Coefficient,[3]; listed as propofol,0.42
FCOC(C(F)(F)F)C(F)(F)F [Sevoflurane],EC50,[2],330 µM
same,concentration at which inhibition of GLIC was produced,[3],1 % of MAC
same,effect on currents through GLIC (current tracing),[3]; 0.3 mM sevoflurane,inhibit currents through GLIC
same,Hill Coefficient,[3],0.27 ± 0.1
same,Hill Coefficient,[3]; listed as sevoflurane,0.27
same,effect on currents through 5HT3 receptors,[7]; at MAC,inhibiting rather than enhancing currents
[Xe] [Xenon],Anesthetic EC50,[16]; MAC of xenon in humans,0.71 atm ([5])
same,effect on GLIC currents,[3]; 0.8 atm xenon,significantly inhibited currents
same,effect on currents through GLIC (current tracing),[3]; 80 % atm xenon,inhibit currents through GLIC
same,Hill Coefficient,[3],1.9 ± 0.47
same,Hill Coefficient,[3]; listed as xenon,not different from 1; also recorded: not significantly different than 1
